Laboratory results published in article PMC5218480 (PLoS ONE, 2017).

Tested on: MV-4-11 cells
Assay: Gene expression microarray analysis (Affymetrix PrimeView) and GSEA
Type: cell-based, human
Design: RFU PODN (11730768_x_at) / Fold change /veh PODN (11730768_x_at) / RFU LINC00158 (11744669_a_at) / Fold change /veh LINC00158 (11744669_a_at) / RFU DUSP10 (11751237_a_at) / Fold change /veh DUSP10 (11751237_a_at) / RFU ID3 (11757404_x_at) / Fold change /veh ID3 (11757404_x_at) / RFU PLEKHG5 (11737974_s_at) / Fold change /veh PLEKHG5 (11737974_s_at) / RFU LRRC4B (11730491_at) / Fold change /veh LRRC4B (11730491_at) / RFU GIMAP4 (11747438_a_at) / Fold change /veh GIMAP4 (11747438_a_at) / RFU KRT8 (11758183_x_at) / Fold change /veh KRT8 (11758183_x_at) / RFU CNN1 (11734310_a_at) / Fold change /veh CNN1 (11734310_a_at) / RFU VPS37D (11726825_at) / Fold change /veh VPS37D (11726825_at) / RFU C10orf10 (11716522_x_at) / Fold change /veh C10orf10 (11716522_x_at) / RFU KIR2DL2 /// KIR2DL4 /// KIR2DL5A /// KIR2DL5B /// KIR2DS1 /// KIR2DS2 /// KIR2DS3 /// KIR2DS4 /// KIR3DL3 /// KIR3DL3 /// KIR3DS1 (11738374_at) / Fold change /veh KIR2DL2 /// KIR2DL4 /// KIR2DL5A /// KIR2DL5B /// KIR2DS1 /// KIR2DS2 /// KIR2DS3 /// KIR2DS4 /// KIR3DL3 /// KIR3DL3 /// KIR3DS1 (11738374_at) / RFU C1QL1 (11718748_at) / Fold change /veh C1QL1 (11718748_at) / RFU TMPRSS4 (11747572_a_at) / Fold change /veh TMPRSS4 (11747572_a_at) / RFU HAMP (11756126_x_at) / Fold change /veh HAMP (11756126_x_at) / RFU RNFT2 (11725882_a_at) / Fold change /veh RNFT2 (11725882_a_at) / RFU NR4A2 (11747474_a_at) / Fold change /veh NR4A2 (11747474_a_at) / RFU ABCC12 (11746883_a_at) / Fold change /veh ABCC12 (11746883_a_at) / RFU TMEM136 (11760407_x_at) / Fold change /veh TMEM136 (11760407_x_at) / RFU CLDN22 /// WWC2 (11732394_at) / Fold change /veh CLDN22 /// WWC2 (11732394_at) / RFU HLA-DPB1 (11760878_x_at) / Fold change /veh HLA-DPB1 (11760878_x_at) / RFU SPINT1 (11716480_a_at) / Fold change /veh SPINT1 (11716480_a_at) / RFU GAP43 (11754022_s_at) / Fold change /veh GAP43 (11754022_s_at) / RFU A4GNT (11735810_at) / Fold change /veh A4GNT (11735810_at) / RFU PRB3 (11715151_x_at) / Fold change /veh PRB3 (11715151_x_at) / RFU TUBB4B (11761932_at) / Fold change /veh TUBB4B (11761932_at) / RFU CAPN14 (11732068_a_at) / Fold change /veh CAPN14 (11732068_a_at) / RFU TMCC2 (11721928_a_at) / Fold change /veh TMCC2 (11721928_a_at) / RFU IRGQ (11745062_a_at) / Fold change /veh IRGQ (11745062_a_at) / RFU FAM174B (11720279_a_at) / Fold change /veh FAM174B (11720279_a_at) / RFU TMPRSS4 (11748680_a_at) / Fold change /veh TMPRSS4 (11748680_a_at) / RFU FAM212B (11763350_a_at) / Fold change /veh FAM212B (11763350_a_at) / RFU PLEKHG5 (11743358_a_at) / Fold change /veh PLEKHG5 (11743358_a_at) / RFU ZSCAN30 (11745921_a_at) / Fold change /veh ZSCAN30 (11745921_a_at) / RFU CMKLR1 (11741424_a_at) / Fold change /veh CMKLR1 (11741424_a_at) / RFU LOC101060620 /// MAPK8IP1 (11723275_at) / Fold change /veh LOC101060620 /// MAPK8IP1 (11723275_at) / RFU SPTSSB (11747773_x_at) / Fold change /veh SPTSSB (11747773_x_at) / RFU PRSS12 (11739890_at) / Fold change /veh PRSS12 (11739890_at) / RFU BIN1 (11741810_x_at) / Fold change /veh BIN1 (11741810_x_at) / RFU WNT11 (11732464_a_at) / Fold change /veh WNT11 (11732464_a_at) / RFU C10orf10 (11716521_a_at) / Fold change /veh C10orf10 (11716521_a_at) / RFU C5orf56 (11738089_at) / Fold change /veh C5orf56 (11738089_at) / RFU CYB561 (11721691_x_at) / Fold change /veh CYB561 (11721691_x_at) / RFU ANKRD19P (11752326_a_at) / Fold change /veh ANKRD19P (11752326_a_at) / RFU OR2T12 /// OR2T33 /// OR2T8 (11738714_s_at) / Fold change /veh OR2T12 /// OR2T33 /// OR2T8 (11738714_s_at) / RFU VCAN (11748164_a_at) / Fold change /veh VCAN (11748164_a_at) / RFU JSRP1 (11732532_at) / Fold change /veh JSRP1 (11732532_at) / RFU KRTAP10-11 (11738290_x_at) / Fold change /veh KRTAP10-11 (11738290_x_at) / RFU MYO3A (11730013_a_at) / Fold change /veh MYO3A (11730013_a_at) / RFU EBF3 (11725865_a_at) / Fold change /veh EBF3 (11725865_a_at) / RFU CAMK2N1 (11719241_x_at) / Fold change /veh CAMK2N1 (11719241_x_at) / RFU C5orf56 (11738088_a_at) / Fold change /veh C5orf56 (11738088_a_at) / RFU OLFML3 (11715873_a_at) / Fold change /veh OLFML3 (11715873_a_at) / RFU LOC100653217 /// NTM (11731650_a_at) / Fold change /veh LOC100653217 /// NTM (11731650_a_at) / RFU MAPK11 (11762145_a_at) / Fold change /veh MAPK11 (11762145_a_at) / RFU FIZ1 (11724087_x_at) / Fold change /veh FIZ1 (11724087_x_at) / RFU OASL (11726364_x_at) / Fold change /veh OASL (11726364_x_at) / RFU SOX15 (11748057_x_at) / Fold change /veh SOX15 (11748057_x_at) / RFU CD79A (11719716_a_at) / Fold change /veh CD79A (11719716_a_at) / RFU HIST1H1D (11736915_at) / Fold change /veh HIST1H1D (11736915_at) / RFU CASKIN2 (11723855_a_at) / Fold change /veh CASKIN2 (11723855_a_at) / RFU LOC730098 (11760151_x_at) / Fold change /veh LOC730098 (11760151_x_at) / RFU OR4N2 (11742367_at) / Fold change /veh OR4N2 (11742367_at) / RFU PRRT2 (11749266_a_at) / Fold change /veh PRRT2 (11749266_a_at) / RFU SNX32 (11753110_a_at) / Fold change /veh SNX32 (11753110_a_at) / RFU CDHR5 (11726645_a_at) / Fold change /veh CDHR5 (11726645_a_at) / RFU RCAN1 (11760418_a_at) / Fold change /veh RCAN1 (11760418_a_at) / RFU FAM167A (11723789_a_at) / Fold change /veh FAM167A (11723789_a_at) / RFU FAM26E (11764081_at) / Fold change /veh FAM26E (11764081_at) / RFU ISYNA1 (11749810_s_at) / Fold change /veh ISYNA1 (11749810_s_at) / RFU ACY1 (11761880_at) / Fold change /veh ACY1 (11761880_at) / RFU 11764098_at / Fold change /veh 11764098_at / RFU SAMD14 (11745864_x_at) / Fold change /veh SAMD14 (11745864_x_at) / RFU NPB (11741838_a_at) / Fold change /veh NPB (11741838_a_at) / RFU TMPRSS6 (11731388_a_at) / Fold change /veh TMPRSS6 (11731388_a_at) / RFU KRTAP10-2 (11738614_at) / Fold change /veh KRTAP10-2 (11738614_at) / RFU ARHGAP8 /// PRR5-ARHGAP8 (11727945_x_at) / Fold change /veh ARHGAP8 /// PRR5-ARHGAP8 (11727945_x_at) / RFU KRTAP5-7 /// NADSYN1 (11734609_at) / Fold change /veh KRTAP5-7 /// NADSYN1 (11734609_at) / RFU RASL12 (11751679_a_at) / Fold change /veh RASL12 (11751679_a_at) / RFU CDKN2B (11736163_a_at) / Fold change /veh CDKN2B (11736163_a_at) / RFU PRF1 (11729649_at) / Fold change /veh PRF1 (11729649_at) / RFU, ZNF638 /// ZNF638-IT1 / Fold change vs veh, ZNF638 /// ZNF638-IT1 / RFU, PANK3 / Fold change vs veh, PANK3 / RFU, SH3YL1 / Fold change vs veh, SH3YL1 / RFU, ZEB2 / Fold change vs veh, ZEB2 / RFU, NRIP1 / Fold change vs veh, NRIP1 / RFU, PTTG1IP / Fold change vs veh, PTTG1IP / RFU, CAPN2 / Fold change vs veh, CAPN2 / RFU, MED14 / Fold change vs veh, MED14 / RFU, SNORA58 / Fold change vs veh, SNORA58 / RFU, C1orf63 / Fold change vs veh, C1orf63 / RFU, LRRFIP1 / Fold change vs veh, LRRFIP1 / RFU, NDUFAF7 / Fold change vs veh, NDUFAF7 / RFU, SLC12A2 / Fold change vs veh, SLC12A2 / RFU, IBTK / Fold change vs veh, IBTK / RFU, ESF1 / Fold change vs veh, ESF1 / Fold change vs veh, TMEM50B / RFU, TAOK1 / Fold change vs veh, TAOK1 / RFU, ACBD3 / Fold change vs veh, ACBD3 / RFU, TMA16 / Fold change vs veh, TMA16 / RFU, RWDD3 / Fold change vs veh, RWDD3 / RFU, BCAT1 / Fold change vs veh, BCAT1 / RFU, EDEM3 / Fold change vs veh, EDEM3 / RFU, TMEM33 / Fold change vs veh, TMEM33 / RFU, WDR75 / Fold change vs veh, WDR75 / RFU, AHCTF1 / Fold change vs veh, AHCTF1 / RFU, TFRC / Fold change vs veh, TFRC / RFU, ZDHHC17 / Fold change vs veh, ZDHHC17 / RFU, NOM1 / Fold change vs veh, NOM1 / RFU, ARL8B / Fold change vs veh, ARL8B / RFU, ZBTB11 / Fold change vs veh, ZBTB11 / RFU, TAMM41 / Fold change vs veh, TAMM41 / RFU, KIAA1704 /// LOC100996395 / Fold change vs veh, KIAA1704 /// LOC100996395 / RFU, ING1 / Fold change vs veh, ING1 / RFU, TRMT61B / Fold change vs veh, TRMT61B / RFU, FUBP3 / Fold change vs veh, FUBP3 / RFU, TP53 / Fold change vs veh, TP53 / RFU, TNKS2 / Fold change vs veh, TNKS2 / RFU, ZFP14 / Fold change vs veh, ZFP14 / RFU, ACTR2 / Fold change vs veh, ACTR2 / RFU, PPP3R1 / Fold change vs veh, PPP3R1 / RFU, PIK3R1 / Fold change vs veh, PIK3R1 / RFU, HNRNPA1 / Fold change vs veh, HNRNPA1 / RFU, RNF170 / Fold change vs veh, RNF170 / RFU, ZNF28 / Fold change vs veh, ZNF28 / RFU, RNGTT / Fold change vs veh, RNGTT / RFU, OGT / Fold change vs veh, OGT / RFU, BRD1 / Fold change vs veh, BRD1 / RFU, MARS / Fold change vs veh, MARS / RFU, ZNF655 / Fold change vs veh, ZNF655 / RFU, FAHD1 / Fold change vs veh, FAHD1 / RFU, BDP1 / Fold change vs veh, BDP1 / RFU, LRRCC1 / Fold change vs veh, LRRCC1 / RFU, ARID1A / Fold change vs veh, ARID1A / RFU, ZNF146 / Fold change vs veh, ZNF146 / RFU, ZNF330 / Fold change vs veh, ZNF330 / RFU, GPN3 / Fold change vs veh, GPN3 / RFU, C9orf123 / Fold change vs veh, C9orf123 / RFU, N4BP2L2 / Fold change vs veh, N4BP2L2 / RFU, ARFIP1 / Fold change vs veh, ARFIP1 / RFU, FAM179B / Fold change vs veh, FAM179B / RFU, BCL10 / Fold change vs veh, BCL10 / RFU, UHRF1BP1L / Fold change vs veh, UHRF1BP1L / RFU, BET1 / Fold change vs veh, BET1 / RFU, CNOT2 / Fold change vs veh, CNOT2 / RFU, ZNF268 / Fold change vs veh, ZNF268 / Fold change vs veh, ZNF507 / RFU, DGCR2 / Fold change vs veh, DGCR2 / RFU, WDSUB1 / Fold change vs veh, WDSUB1 / Fold change vs veh, HSP90B1 /// MIR3652 / RFU, ADSS / Fold change vs veh, ADSS / RFU, GK / Fold change vs veh, GK / RFU, ZNF148 / Fold change vs veh, ZNF148 / RFU, TAF9 / Fold change vs veh, TAF9 / RFU, SLC1A5 / Fold change vs veh, SLC1A5 / RFU, SLMO2 / Fold change vs veh, SLMO2 / RFU, ABCC4 / Fold change vs veh, ABCC4 / RFU, LOC101060439 /// RAP1B / Fold change vs veh, LOC101060439 /// RAP1B / RFU, RFX7 / Fold change vs veh, RFX7 / RFU, GTPBP10 / Fold change vs veh, GTPBP10 / RFU, CNEP1R1 / Fold change vs veh, CNEP1R1 / RFU, BIVM-ERCC5 /// ERCC5 / Fold change vs veh, BIVM-ERCC5 /// ERCC5 / RFU, ILF3 / Fold change vs veh, ILF3 / RFU 11762660_at / Fold change /veh 11762660_at / RFU VCAN (11757783_s_at) / Fold change /veh VCAN (11757783_s_at) / RFU DDX43 (11728927_at) / Fold change /veh DDX43 (11728927_at) / RFU KRT8 (11758188_x_at) / Fold change /veh KRT8 (11758188_x_at) / RFU NKD1 (11759106_at) / Fold change /veh NKD1 (11759106_at) / RFU SRD5A1 (11742802_a_at) / Fold change /veh SRD5A1 (11742802_a_at) / RFU TPSAB1 /// TPSB2 (11721975_s_at) / Fold change /veh TPSAB1 /// TPSB2 (11721975_s_at) / RFU GSTM3 (11746129_a_at) / Fold change /veh GSTM3 (11746129_a_at) / RFU IL23R (11737362_x_at) / Fold change /veh IL23R (11737362_x_at) / RFU TMEM51 (11727254_a_at) / Fold change /veh TMEM51 (11727254_a_at) / RFU PIWIL2 (11732686_x_at) / Fold change /veh PIWIL2 (11732686_x_at) / RFU ORM1 (11744905_x_at) / Fold change /veh ORM1 (11744905_x_at) / RFU CCDC152 (11743942_at) / Fold change /veh CCDC152 (11743942_at) / RFU ECM1 (11717891_a_at) / Fold change /veh ECM1 (11717891_a_at) / RFU IL23R (11748794_a_at) / Fold change /veh IL23R (11748794_a_at) / RFU TNFAIP8L3 (11732012_x_at) / Fold change /veh TNFAIP8L3 (11732012_x_at) / RFU MBOAT4 (11741988_at) / Fold change /veh MBOAT4 (11741988_at) / RFU 11764193_at / Fold change /veh 11764193_at / RFU TMEM53 (11763286_at) / Fold change /veh TMEM53 (11763286_at) / RFU MAGEB2 (11727129_at) / Fold change /veh MAGEB2 (11727129_at) / RFU TMEM200A (11744735_a_at) / Fold change /veh TMEM200A (11744735_a_at) / RFU CCDC152 (11751479_a_at) / Fold change /veh CCDC152 (11751479_a_at) / RFU FAM211A (11726209_a_at) / Fold change /veh FAM211A (11726209_a_at) / RFU RGS16 (11746705_a_at) / Fold change /veh RGS16 (11746705_a_at) / RFU VCAN (11755009_s_at) / Fold change /veh VCAN (11755009_s_at) / RFU RHOB (11743442_s_at) / Fold change /veh RHOB (11743442_s_at) / RFU RGS16 (11720943_a_at) / Fold change /veh RGS16 (11720943_a_at) / RFU RGS16 (11720944_at) / Fold change /veh RGS16 (11720944_at) / RFU, VPS4B / Fold change vs veh, VPS4B / RFU, CREB1 / Fold change vs veh, CREB1 / RFU, DNAJC13 / Fold change vs veh, DNAJC13 / RFU, GNAQ / Fold change vs veh, GNAQ / RFU, CDK5R1 / Fold change vs veh, CDK5R1 / RFU, ZRANB3 / Fold change vs veh, ZRANB3 / RFU, CUL4A / Fold change vs veh, CUL4A / RFU, CCNY / Fold change vs veh, CCNY / RFU, UFL1 / Fold change vs veh, UFL1 / RFU, COG3 / Fold change vs veh, COG3 / RFU, DIAPH2 / Fold change vs veh, DIAPH2 / RFU, SKA2 / Fold change vs veh, SKA2 / RFU, AFF3 / Fold change vs veh, AFF3 / RFU, LMF1 / Fold change vs veh, LMF1 / RFU, IPO11 / Fold change vs veh, IPO11 / RFU, DFFB / Fold change vs veh, DFFB / RFU, FOXP1 / Fold change vs veh, FOXP1 / RFU, CARD8 / Fold change vs veh, CARD8 / RFU, STRN3 / Fold change vs veh, STRN3 / RFU, ADK / Fold change vs veh, ADK / RFU, RASSF2 / Fold change vs veh, RASSF2 / RFU, WIPF1 / Fold change vs veh, WIPF1 / RFU, LARP1B / Fold change vs veh, LARP1B / RFU, RASA1 / Fold change vs veh, RASA1 / RFU, RB1 / Fold change vs veh, RB1 / RFU, PPFIA1 / Fold change vs veh, PPFIA1 / RFU, MAT2A / Fold change vs veh, MAT2A / RFU, CCT5 / Fold change vs veh, CCT5 / RFU, WDR92 / Fold change vs veh, WDR92 / RFU, CUX1 / Fold change vs veh, CUX1 / RFU, TTC7A / Fold change vs veh, TTC7A / RFU, TMEM135 / Fold change vs veh, TMEM135 / RFU, DEPTOR / Fold change vs veh, DEPTOR / RFU, CPM / Fold change vs veh, CPM / RFU, DNAJB6 / Fold change vs veh, DNAJB6 / RFU, CACNA2D3 / Fold change vs veh, CACNA2D3 / RFU, DTX4 / Fold change vs veh, DTX4 / RFU, TFCP2 / Fold change vs veh, TFCP2 / RFU, GMCL1 /// GMCL1P1 / Fold change vs veh, GMCL1 /// GMCL1P1 / RFU, AEBP2 / Fold change vs veh, AEBP2 / RFU, SNHG1 /// SNORD22 /// SNORD25 /// SNORD26 /// SNORD27 /// SNORD28 /// SNORD29 /// SNORD31 / Fold change vs veh, SNHG1 /// SNORD22 /// SNORD25 /// SNORD26 /// SNORD27 /// SNORD28 /// SNORD29 /// SNORD31 / Fold change (Aza/veh), C12orf56 (ProbeSet 11735607_a_at) / Fold change (ACY-1035/veh), C12orf56 (ProbeSet 11735607_a_at) / Fold change (Aza/veh), FGFR1OP (ProbeSet 11751329_s_at) / Fold change (ACY-1035/veh), FGFR1OP (ProbeSet 11751329_s_at) / Fold change (Aza/veh), VPS36 (ProbeSet 11739960_a_at) / Fold change (ACY-1035/veh), VPS36 (ProbeSet 11739960_a_at) / RFU SYPL1 (11715823_x_at) / Fold change /veh SYPL1 (11715823_x_at) / RFU IGFBP7 (11715501_s_at) / Fold change /veh IGFBP7 (11715501_s_at) / RFU REEP3 (11722064_at) / Fold change /veh REEP3 (11722064_at) / RFU IGLL1 (11728026_x_at) / Fold change /veh IGLL1 (11728026_x_at): dose or concentration left out as unconfirmed
Conditions: ProbeSet 11732370_a_at; LIST D

Nc1ccc(-c2cccs2)cc1NC(=O)c1ccc2c(c1)cc(C1CC1)n2CCN1CCOCC1 [ACY-1035]
RFU, CUX1: 235.11 RFU
